Test [1] has as its target T1, Protein fem-1 homolog B/Histone deacetylase 1 (Homo sapiens, UniProt Q13547+Q9UK73). As to the kind of experiment: PROTAC activity at FEM1B/HDAC1 in human MM1.S cell lysate assessed as neddylation-dependent protein degradation at 1 uM measured after 24 hrs by Western immunoassay. It counts as subcellular.
For test [2], the target named is T1, Protein fem-1 homolog B/Histone deacetylase 1. As to the kind of experiment: PROTAC activity at FEM1B/HDAC1 in human MV4-11 cell lysate assessed as protein degradation at 10 uM measured after 24 hrs by Western immunoassay relative to control. It is filed as subcellular.
For test [3] the target is unchanged. As to the kind of experiment: PROTAC activity at FEM1B/HDAC1 in human MDA-MB-231 cell lysate assessed as protein degradation at 10 uM measured after 24 hrs by Western immunoassay relative to control. It counts as subcellular.
Test [4] has the same target. As to the kind of experiment: PROTAC activity at FEM1B/HDAC1 in human U-87 MG cell lysate assessed as protein degradation at 10 uM measured after 24 hrs by Western immunoassay relative to control. It is filed as subcellular.
For test [5], the system named is MV4-11. As to the kind of experiment: Antiproliferative activity against human MV4-11 cells assessed as cell viability measured after 72 hrs incubation by MTT assay. It counts as functional, cell-based. As to conditions: MV4-11, 72 h. On the technique in general: Formazan colour is commonly taken as a measure of viable cells.
Test [6] relates to MDA-MB-231. As to the kind of experiment: Antiproliferative activity against human MDA-MB-231 cells assessed as cell viability up to 50 uM measured after 72 hrs incubation by MTT assay relative to control. It counts as functional.
The test system of test [7] is U-87 MG. As to the kind of experiment: Antiproliferative activity against human U-87 MG cells assessed as cell viability up to 50 uM measured after 72 hrs incubation by MTT assay relative to control. It is filed as functional, U-87MG ATCC.
For test [8], the system named is MM1.S. As to the kind of experiment: Induction of cell cycle arrest in human MM1.S cells assessed as reduction in cells at […] phase at 10 uM measured after 48 hrs by propidium iodide based flow cytometry. It is filed as functional. A general note: A flow cytometer gives signals particle by particle.
The subject of test [9] is MM1.S. As to the kind of experiment: Induction of cell cycle arrest in human MM1.s cells assessed as increase in cells at Sub-G1 phase at 10 uM measured after 48 hrs by propidium iodide based flow cytometry. It is filed as functional.
In test [10] the test system is MM1.S. As to the kind of experiment: Induction of apoptosis in human MM1.S cells assessed as increase in early apoptotic cells at 10 uM measured after 48 hrs by annexin V-FITC/PI staining based assay. It counts as functional, cell-based.
In test [11] the test system is MM1.S. As to the kind of experiment: Induction of apoptosis in human MM1.S cells assessed as increase in late apoptotic cells at 10 uM measured after 48 hrs by annexin V-FITC/PI staining based assay. It counts as functional, cell-based.
The test system of test [12] is MM1.S. As to the kind of experiment: Antiproliferative activity against human MM1.S cells assessed as cell viability up to 50 uM measured after 72 hrs incubation by MTT assay. It is filed as functional.
The target of test [13] is T1, Protein fem-1 homolog B/Histone deacetylase 1. As to the kind of experiment: PROTAC activity at FEM1B/HDAC1 in human MM1.S cell lysate assessed as initial degradation at 1 uM measured after 24 hrs by Western immunoassay. It is filed as subcellular.
Test [14] shares this target. As to the kind of experiment: PROTAC activity at FEM1B/HDAC1 in human MM.1S cell lysate assessed as maximal initial degradation at measured after 24 hrs by Western immunoassay relative to control. As to conditions: MM1.S. It is filed as subcellular.
The target is the same in test [15]. As to the kind of experiment: PROTAC activity at FEM1B/HDAC1 in human MM1.S cell lysate assessed as protein degradation at 1 uM measured after 24 hrs by Western immunoassay. It counts as subcellular.
Test [16] concerns the target Protein fem-1 homolog B/Histone deacetylase 2 (Homo sapiens) (UniProt Q92769+Q9UK73). As to the kind of experiment: PROTAC activity at FEM1B/HDAC2 in human MM1.S cell lysate assessed as protein degradation at 1 uM measured after 24 hrs by Western immunoassay. It counts as subcellular.
In test [17] the target is Protein fem-1 homolog B/Histone deacetylase 3 (Homo sapiens) (UniProt O15379+Q9UK73). As to the kind of experiment: PROTAC activity at FEM1B/HDAC3 in human MM1.S cell lysate assessed as protein degradation at 1 uM measured after 24 hrs by Western immunoassay. It is filed as subcellular.
Test [18] has as its target Protein fem-1 homolog B/Protein deacetylase HDAC6 (Homo sapiens) (UniProt Q9UBN7+Q9UK73). As to the kind of experiment: PROTAC activity at FEM1B/HDAC6 in human MM1.S cell lysate assessed as protein degradation at 1 uM measured after 24 hrs by Western immunoassay. It counts as subcellular.
For test [19], the target named is Protein fem-1 homolog B/Histone deacetylase 4 (Homo sapiens) (UniProt P56524+Q9UK73). As to the kind of experiment: PROTAC activity at FEM1B/HDAC4 in human MM1.S cell lysate assessed as protein degradation at 1 uM measured after 24 hrs by Western immunoassay. It is filed as subcellular.
Test [20] addresses Protein fem-1 homolog B/Histone deacetylase 8 (Homo sapiens) (UniProt Q9BY41+Q9UK73). As to the kind of experiment: PROTAC activity at FEM1B/HDAC8 in human MM1.S cell lysate assessed as protein degradation at 1 uM measured after 24 hrs by Western immunoassay. It is filed as subcellular.
In test [21] the target is T1, Protein fem-1 homolog B/Histone deacetylase 1. As to the kind of experiment: PROTAC activity at FEM1B/HDAC1 in human MM1.S cell lysate assessed as neddylation-dependent protein degradation at 1 uM in presence of vorinostat measured after 24 hrs by Western immunoassay. It counts as subcellular.
The target is the same in test [22]. As to the kind of experiment: PROTAC activity at FEM1B/HDAC1 in human MM1.S cell lysate assessed as neddylation-dependent protein degradation at 1 uM in presence of MLN4924 measured after 24 hrs by Western immunoassay. It counts as subcellular.
Test [23] addresses Protein fem-1 homolog B/Lysine-specific histone demethylase 1A (Homo sapiens) (UniProt O60341+Q9UK73). As to the kind of experiment: PROTAC activity at FEM1B/KDM1A (LSD1) in human MM1.S cell lysate assessed as protein degradation at 0.5 uM measured after 6 hrs by global quantitative proteomics analysis. It counts as subcellular.
The target in test [24] is Protein fem-1 homolog B/REST corepressor 1 (Homo sapiens) (UniProt Q9UKL0+Q9UK73). As to the kind of experiment: PROTAC activity at FEM1B/RCOR1 in human MM1.S cell lysate assessed as protein degradation at 0.5 uM measured after 6 hrs by global quantitative proteomics analysis. It counts as subcellular.
Test [25] concerns the target Protein fem-1 homolog B/REST corepressor 3 (Homo sapiens) (UniProt Q9P2K3+Q9UK73). As to the kind of experiment: PROTAC activity at FEM1B/RCOR3 in human MM1.S cell lysate assessed as protein degradation at 0.5 uM measured after 6 hrs by global quantitative proteomics analysis. It counts as subcellular.
For test [26], the target named is Protein fem-1 homolog B//Paired amphipathic helix protein Sin3a (Homo sapiens) (UniProt Q9UK73+Q96ST3). As to the kind of experiment: PROTAC activity at FEM1B/SIN3A in human MM1.S cell lysate assessed as protein degradation at 0.5 uM measured after 6 hrs by global quantitative proteomics analysis. It is filed as subcellular.
The target of test [27] is Protein fem-1 homolog B/Nuclear receptor corepressor 1 (Homo sapiens) (UniProt O75376+Q9UK73). As to the kind of experiment: PROTAC activity at FEM1B/NCOR1 in human MM1.S cell lysate assessed as protein degradation at 0.5 uM measured after 6 hrs by global quantitative proteomics analysis. It counts as subcellular.
Test [28] addresses Protein fem-1 homolog B//Mesoderm induction early response protein 1 (Homo sapiens) (UniProt Q9UK73+Q8N108). As to the kind of experiment: PROTAC activity at FEM1B/MIER1 in human MM1.S cell lysate assessed as protein degradation at 0.5 uM measured after 6 hrs by global quantitative proteomics analysis. It counts as subcellular.

The source made the active and inactive calls. The calls are words filed in the database; no cut-off is given here.

T1 sequence (Q13547 whole entry, looked up): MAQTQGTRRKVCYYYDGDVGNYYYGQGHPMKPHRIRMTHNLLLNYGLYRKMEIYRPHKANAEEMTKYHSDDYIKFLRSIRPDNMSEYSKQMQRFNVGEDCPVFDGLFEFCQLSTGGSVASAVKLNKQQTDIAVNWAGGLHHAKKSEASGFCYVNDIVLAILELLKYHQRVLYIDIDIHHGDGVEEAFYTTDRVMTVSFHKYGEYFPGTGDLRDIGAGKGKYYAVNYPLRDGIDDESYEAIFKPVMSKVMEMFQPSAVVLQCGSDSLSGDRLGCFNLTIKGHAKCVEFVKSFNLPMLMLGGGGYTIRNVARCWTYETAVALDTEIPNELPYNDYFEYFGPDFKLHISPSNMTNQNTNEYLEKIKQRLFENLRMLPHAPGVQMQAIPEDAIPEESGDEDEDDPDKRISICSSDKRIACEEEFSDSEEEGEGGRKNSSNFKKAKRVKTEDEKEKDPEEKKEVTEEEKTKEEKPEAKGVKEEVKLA
T1 sequence (Q9UK73 whole entry, looked up): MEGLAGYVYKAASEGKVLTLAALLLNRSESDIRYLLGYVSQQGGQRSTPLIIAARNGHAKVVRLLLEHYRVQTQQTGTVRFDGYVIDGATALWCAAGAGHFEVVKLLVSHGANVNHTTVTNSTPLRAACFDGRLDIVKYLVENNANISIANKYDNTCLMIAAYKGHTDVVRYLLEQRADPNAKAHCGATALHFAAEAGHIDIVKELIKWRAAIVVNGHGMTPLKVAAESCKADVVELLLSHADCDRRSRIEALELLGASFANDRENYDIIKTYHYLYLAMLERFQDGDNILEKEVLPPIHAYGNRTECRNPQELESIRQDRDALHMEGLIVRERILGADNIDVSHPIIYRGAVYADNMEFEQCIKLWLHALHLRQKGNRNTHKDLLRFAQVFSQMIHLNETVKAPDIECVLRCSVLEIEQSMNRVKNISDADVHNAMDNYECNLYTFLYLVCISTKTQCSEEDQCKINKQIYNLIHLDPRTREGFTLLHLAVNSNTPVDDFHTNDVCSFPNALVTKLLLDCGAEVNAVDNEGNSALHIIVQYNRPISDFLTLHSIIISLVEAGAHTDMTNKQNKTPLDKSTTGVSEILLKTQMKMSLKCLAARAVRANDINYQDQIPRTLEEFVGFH
Sequence of Protein fem-1 homolog B/Histone deacetylase 4 (Homo sapiens) (P56524 whole entry, looked up): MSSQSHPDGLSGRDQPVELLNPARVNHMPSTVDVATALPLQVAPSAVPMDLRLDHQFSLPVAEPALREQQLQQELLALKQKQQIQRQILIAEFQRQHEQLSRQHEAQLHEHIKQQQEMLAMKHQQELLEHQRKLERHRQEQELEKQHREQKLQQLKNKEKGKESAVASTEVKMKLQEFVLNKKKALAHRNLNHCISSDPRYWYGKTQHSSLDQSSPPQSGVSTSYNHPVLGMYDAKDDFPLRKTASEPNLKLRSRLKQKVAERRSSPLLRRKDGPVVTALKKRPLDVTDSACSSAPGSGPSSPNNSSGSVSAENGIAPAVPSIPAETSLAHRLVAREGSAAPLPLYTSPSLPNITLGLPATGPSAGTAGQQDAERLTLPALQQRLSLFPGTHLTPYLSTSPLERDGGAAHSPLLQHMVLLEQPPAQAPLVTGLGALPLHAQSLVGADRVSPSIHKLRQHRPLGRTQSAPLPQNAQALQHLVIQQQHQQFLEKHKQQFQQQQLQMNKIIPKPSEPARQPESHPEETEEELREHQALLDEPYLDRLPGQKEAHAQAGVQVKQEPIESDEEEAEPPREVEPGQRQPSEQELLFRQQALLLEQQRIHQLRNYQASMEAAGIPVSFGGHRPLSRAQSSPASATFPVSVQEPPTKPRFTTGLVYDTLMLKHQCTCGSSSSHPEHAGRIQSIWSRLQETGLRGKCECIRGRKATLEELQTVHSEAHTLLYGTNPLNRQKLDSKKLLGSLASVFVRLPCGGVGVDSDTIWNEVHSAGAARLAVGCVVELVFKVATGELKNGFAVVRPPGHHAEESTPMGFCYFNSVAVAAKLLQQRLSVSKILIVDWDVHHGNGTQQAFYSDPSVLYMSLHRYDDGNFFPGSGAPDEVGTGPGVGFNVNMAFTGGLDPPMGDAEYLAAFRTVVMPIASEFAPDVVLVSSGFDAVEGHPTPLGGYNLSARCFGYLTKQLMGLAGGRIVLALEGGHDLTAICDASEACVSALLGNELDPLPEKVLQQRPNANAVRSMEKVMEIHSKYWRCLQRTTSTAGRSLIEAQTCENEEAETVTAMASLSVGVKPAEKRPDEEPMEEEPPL
Sequence of Protein fem-1 homolog B/Histone deacetylase 4 (Homo sapiens) (Q9UK73 whole entry, looked up): as the sequence (Q9UK73 whole entry, looked up) above
Sequence of Protein fem-1 homolog B/Protein deacetylase HDAC6 (Homo sapiens) (Q9UBN7 whole entry, looked up): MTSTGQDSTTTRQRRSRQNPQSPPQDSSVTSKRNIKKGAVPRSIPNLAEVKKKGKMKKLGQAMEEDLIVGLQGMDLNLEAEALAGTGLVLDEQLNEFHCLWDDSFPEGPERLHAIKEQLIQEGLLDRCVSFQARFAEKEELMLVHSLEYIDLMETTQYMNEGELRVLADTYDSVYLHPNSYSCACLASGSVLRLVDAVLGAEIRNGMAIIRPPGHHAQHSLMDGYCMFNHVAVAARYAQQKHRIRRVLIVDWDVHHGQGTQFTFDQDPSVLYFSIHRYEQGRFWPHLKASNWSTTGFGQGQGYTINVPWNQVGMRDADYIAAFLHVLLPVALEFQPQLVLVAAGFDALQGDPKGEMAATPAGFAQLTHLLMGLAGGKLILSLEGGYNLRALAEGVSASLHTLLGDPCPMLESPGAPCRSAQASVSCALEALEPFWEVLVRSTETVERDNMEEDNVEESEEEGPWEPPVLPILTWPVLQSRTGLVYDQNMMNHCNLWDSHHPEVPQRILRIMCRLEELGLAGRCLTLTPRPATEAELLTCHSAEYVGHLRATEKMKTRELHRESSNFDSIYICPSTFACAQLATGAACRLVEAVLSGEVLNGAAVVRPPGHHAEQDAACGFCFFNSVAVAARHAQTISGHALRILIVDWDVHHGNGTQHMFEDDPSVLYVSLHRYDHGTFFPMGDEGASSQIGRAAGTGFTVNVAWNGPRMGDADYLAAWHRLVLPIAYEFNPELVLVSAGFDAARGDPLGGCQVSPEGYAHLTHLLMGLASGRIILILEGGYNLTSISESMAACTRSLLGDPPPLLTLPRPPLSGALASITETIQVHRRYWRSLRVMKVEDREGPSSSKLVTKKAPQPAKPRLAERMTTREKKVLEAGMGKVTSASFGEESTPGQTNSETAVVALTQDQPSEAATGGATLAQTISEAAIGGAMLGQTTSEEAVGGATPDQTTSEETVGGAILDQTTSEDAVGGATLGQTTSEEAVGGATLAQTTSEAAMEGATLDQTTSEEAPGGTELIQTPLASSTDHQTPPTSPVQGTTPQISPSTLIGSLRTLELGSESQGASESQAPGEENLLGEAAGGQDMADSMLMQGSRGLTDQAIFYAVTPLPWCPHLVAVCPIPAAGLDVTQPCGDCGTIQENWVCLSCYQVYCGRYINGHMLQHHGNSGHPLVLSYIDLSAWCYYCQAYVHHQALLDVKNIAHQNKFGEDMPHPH
Sequence of Protein fem-1 homolog B/Protein deacetylase HDAC6 (Homo sapiens) (Q9UK73 whole entry, looked up): as the sequence (Q9UK73 whole entry, looked up) above

As usually defined, the EC50 is the concentration needed to bring the measured effect to its halfway point. Turning to `CCC(=O)N(CCC#N)c1ccc2c(c1)OCCN2CC(=O)NCC(=O)Nc1ccc(C(=O)NCCCCCCC(=O)NO)cc1.O=C(O)C(F)(F)F`, the outcome in test [1], in [2], in test [3], in [4], in test [8] and in test [9] was inactive. In addition, the result in test [10] and in test [11] was inactive. Besides, in [5], the EC50 is 14.1 µM. In addition, the Activity entry in test [6], in test [7] and in test [12] was “<=25%” in each case.

What is called Emax is the size of the effect at its maximum, as opposed to the concentration needed. Take `N#CCCN(C(=O)CCl)c1ccc2c(c1)OCCN2CC(=O)NCC(=O)Nc1ccc(C(=O)NCCCCCCC(=O)NO)cc1`: the Activity was found to be 62.3% in test [13], 87% in [2], 53% in [3] and 75% in test [4]. Moreover, the Emax in test [14] amounted to 85.2%. Besides, the outcome in [15], in [16], in [17], in test [8], in test [9] and in [10] was Active. In addition, the outcome in test [11], in test [23], in test [24], in test [25], in [26] and in test [27] was Active. For the same compound, in test [28], the outcome was Active. The result in [18], in [19], in [20], in test [21] and in [22] was inactive.

Values taken from ChEMBL document CHEMBL6087488, “Development of the First-in-Class FEM1B-Recruiting Histone Deacetylase Degraders” (J Med Chem, 2025).
